Source: patent US20260373093A1, “TIMESCALE-GUIDED MICROFLUIDIC SYNTHESIS OF POLYPHENOL-IRON III NETWORK NANOCAPSULES OF HYDROPHOBIC DRUGS” (Purdue Research Foundation, priority 2023, published 2026)
Where “and” joins values, the source holds several entries; their conditions need not be identical. Equal entries are not always repeated. Where two headings read alike, the source gives them in different places.

Legend:
Pancl cells = experiment: MTT cytotoxicity, Panc1 cells (curcumin); type: cell-based, human; conditions: dosages >40 μM
Method: Panc 10.05 or Pancl cells were seeded in 96-well plates at a density of 5,000 cells per well and allowed to adhere overnight. Panc10.05 cells were incubated with drug-free nanocapsules (pTAs), free paclitaxel, or TFN nanocapsules of paclitaxel at the concentrations ranging from 0.001 to 10 μg mL^−1 calculated by paclitaxel content at 37 °C and 5% CO2 for 24 hr. Pancl cells were incubated with pTAs, free curcumin, or TFN nanocapsules of curcumin at the concentration of 5-160 μM calculated by curcumin content at 37 °C and 5% CO2 for 48 hr. After the incubation, the cells were washed with PBS three times, and 100 μL fresh medium was added to each well. Then cells were cultured for another 24 hours. After incubation, 100 μL fresh medium was added to each well, and 10 μL MTT was added to each well, followed by a 4 h incubation for cleavage at 37 °C. Then 100 μL isopropanol with 0.04 N HCl was added to each well and mixed thoroughly with the medium by repeated pipetting. The result was read with a test wavelength of 570 nm and a reference wavelength of 630 nm using a Microplate Spectrophotometer. Experiments were performed in triplicate and presented as means±SD.

PANC-1 cells = experiment: MTT cytotoxicity, PANC-1 cells (VPX); type: cell-based, human; conditions: 24 hr
Method: (§1) PANC-1 cells were seeded in 96-well plates at a density of 5000 cells per well and allowed to adhere for 24 hours. CAF19 cells were seeded in 96-well plates at a density of 1500 cells per well and allowed to adhere for 24 hours. Cells were incubated with drug-free nanocapsules (pTAs), free drug of VPX, or TFN nanocapsules of VPX at the concentrations ranging from 0.05 to 20 μM calculated by VPX content at 37 °C and 5% CO2 for 24 hr. After the incubation, the cells were washed with PBS 3 times, and 100 μL fresh medium was added to each well. Cells were cultured for another 24 hours. After incubation, 100 μL fresh medium was changed to each well, and 10 μL MTT was added to each well, followed by 4 hr incubation for cleavage at 37 °C. Then 100 μL isopropanol with 0.04 N HCl was added to each well and mixed thoroughly with the medium by repeated pipetting. The result was read with a test wavelength of 570 nm and a reference wavelength of 630 nm using a Microplate Spectrophotometer. Experiments were performed in triplicate and presented as means±SD.

CAF19 cells = experiment: MTT cytotoxicity, CAF19 cells (VPX); type: cell-based; conditions: 24 hr
Method: as §1

[1] = cited from earlier work
Pa03C cells = experiment: MTT cytotoxicity, Pa03C cells; type: cell-based; conditions: for cell viability: 1440 min
Method: Pa03C cells were seeded in 96-well plates at a density of 4000 cells per well and allowed to adhere for 24 hours. Cells were incubated with drug-free nanocapsules (pEGCGs), free paclitaxel, or EFN nanocapsules of paclitaxel at concentrations ranging from 0.001 to 10 µg/mL calculated by paclitaxel content at 37 °C and 5% CO2 for 24 hr. After the incubation, the cells were washed with PBS 3 times, and 100 μL fresh medium was added to each well. Then, cells were cultured for […] another 24 hours. After incubation, 100 μL fresh medium was changed to each well, and 10 μL MTT was added to each well, followed by a 4 h incubation for cleavage at 37 °C. Then 100 μL isopropanol with 0.04 N HCl was added to each well and mixed thoroughly with the medium by repeated pipetting. The result was read with a test wavelength of 570 nm and a reference wavelength of 630 nm using a Microplate Spectrophotometer. Experiments were performed in triplicate and presented as means±SD.

COc1cc(/C=C/C(=O)CC(=O)/C=C/c2ccc(O)c(OC)c2)ccc1O [free curcumin, curcumin]
suppression of cell growth (Pancl cells): significant suppression of Pancl growth

CCOC(=O)N[C@@H]1CC[C@@H]2[C@@H](C1)C[C@H]1C(=O)O[C@H](C)[C@H]1[C@H]2/C=C/c1ccc(-c2cccc(F)c2)cn1 [VPX, vorapaxar]
cell viability (PANC-1 cells; VPX treatment up to 20 μM): above 100%
toxicity (PANC-1 cells; up to 20 μM (VPX content)): no toxicity
cell viability (CAF19 cells; VPX treatment up to 20 μM): above 100%
toxicity (CAF19 cells; up to 20 μM (VPX content)): no toxicity
water solubility ([1]; VPX): 1.4 μg/mL and ~ 3 μM

O=C(O[C@@H]1Cc2c(O)cc(O)cc2O[C@@H]1c1cc(O)c(O)c(O)c1)c1cc(O)c(O)c(O)c1 [EGCG, epigallocatechin-3-gallate]
anticancer activity (Pa03C cells; EGCG on its own (from EFN cytotoxicity test)): significant anticancer activity

CC(=O)O[C@H]1C(=O)[C@@]2(C)[C@H]([C@H](OC(=O)c3ccccc3)[C@]3(O)C[C@H](OC(=O)[C@H](O)[C@@H](NC(=O)c4ccccc4)c4ccccc4)C(C)=C1C3(C)C)[C@]1(OC(C)=O)CO[C@@H]1C[C@@H]2O [free PTX, paclitaxel]
cell viability (Pa03C cells; PTX dosages >0.1 g/mL): ~ 50%
cell viability (Pa03C cells; dosages of 1-10 μg/mL): ~ 50%
water solubility ([1]; water): > 1 µg/mL

C=C1CC[C@H](O)C/C1=C/C=C1\CCC[C@]2(C)[C@@H]([C@H](C)CCCC(C)C)CC[C@@H]12 [VD3, vitamin D]
water solubility ([1]; room temperature): < 0.001 µg/mL
